Where two headings read alike, the source gives them in different places.
Assays:
[1] = target: T1, IKKε (Homo sapiens, UniProt Q14164); test: IKKε biochemical assay; conditions: 30 uM top concentration, 90 min at 25° C., LabChip EZ Reader II
T1 sequence (Q14164 1-716): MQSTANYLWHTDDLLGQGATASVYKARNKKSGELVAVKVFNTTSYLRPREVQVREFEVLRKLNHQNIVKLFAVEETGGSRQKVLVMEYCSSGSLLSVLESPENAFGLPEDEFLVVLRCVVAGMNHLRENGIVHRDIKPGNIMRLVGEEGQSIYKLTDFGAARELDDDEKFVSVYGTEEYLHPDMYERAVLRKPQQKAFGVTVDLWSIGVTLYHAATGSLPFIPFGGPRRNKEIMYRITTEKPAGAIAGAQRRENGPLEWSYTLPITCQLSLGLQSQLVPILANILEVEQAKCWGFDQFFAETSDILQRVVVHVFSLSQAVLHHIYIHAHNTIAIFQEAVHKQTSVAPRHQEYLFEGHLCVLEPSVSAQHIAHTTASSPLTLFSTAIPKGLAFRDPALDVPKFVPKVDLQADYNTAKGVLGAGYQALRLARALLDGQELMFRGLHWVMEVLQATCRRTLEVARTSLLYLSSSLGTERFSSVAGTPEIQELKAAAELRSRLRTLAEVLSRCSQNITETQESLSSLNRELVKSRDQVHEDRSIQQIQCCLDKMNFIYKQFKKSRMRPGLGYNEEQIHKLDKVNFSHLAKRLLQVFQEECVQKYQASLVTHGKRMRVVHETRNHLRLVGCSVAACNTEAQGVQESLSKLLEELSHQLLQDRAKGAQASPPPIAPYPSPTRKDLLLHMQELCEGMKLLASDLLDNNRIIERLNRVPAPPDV
Summary of the method: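 Mobility-shift LabChip read-out followed a 90 min, 25° C. reaction of IKKε with substrate and test compound, with DMSO held at 1% final. Reactions were ended with stop buffer. Wells with 10 uM final staurosporine defined complete inhibition, and DMSO-only wells the uninhibited level.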

[2] = target: T2, TBK1 (Homo sapiens, UniProt Q9UHD2); test: TBK biochemical assay
T2 sequence (Q9UHD2 1-729): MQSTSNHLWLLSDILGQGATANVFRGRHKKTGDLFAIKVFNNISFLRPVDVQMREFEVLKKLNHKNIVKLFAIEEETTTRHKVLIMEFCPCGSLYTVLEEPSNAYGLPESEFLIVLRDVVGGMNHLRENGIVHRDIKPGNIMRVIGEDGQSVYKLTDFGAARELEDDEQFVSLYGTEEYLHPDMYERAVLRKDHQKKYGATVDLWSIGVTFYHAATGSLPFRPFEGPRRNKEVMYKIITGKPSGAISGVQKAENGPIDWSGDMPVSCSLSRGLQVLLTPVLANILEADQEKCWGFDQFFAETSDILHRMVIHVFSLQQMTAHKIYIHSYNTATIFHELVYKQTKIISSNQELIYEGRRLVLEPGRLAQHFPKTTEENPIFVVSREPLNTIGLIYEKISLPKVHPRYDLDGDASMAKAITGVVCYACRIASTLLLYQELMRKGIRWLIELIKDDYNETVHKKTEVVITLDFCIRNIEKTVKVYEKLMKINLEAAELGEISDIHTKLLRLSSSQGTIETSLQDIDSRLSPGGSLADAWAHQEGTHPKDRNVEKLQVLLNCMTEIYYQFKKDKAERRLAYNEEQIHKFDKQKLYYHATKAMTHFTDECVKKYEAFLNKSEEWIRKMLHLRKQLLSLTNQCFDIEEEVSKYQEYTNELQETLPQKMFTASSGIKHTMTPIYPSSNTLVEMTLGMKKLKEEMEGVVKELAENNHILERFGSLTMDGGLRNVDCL
Summary of the method: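 Read-out was a Caliper LabChip mobility-shift assay, run after a 90-min, 25 °C reaction of TBK1 with substrate and compounds, quenched with stop buffer. Control wells received staurosporine at 10 uM final.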

[3] = 10 point 1:4 dose response, read-out: IKKε_IC50
[4] = 10 point 1:4 dose response, 30 uM top concentration, 90 min at 25° C., LabChip EZ Reader II, read-out: TBK1_IC50

IC50 [1, 3] | IC50 [2, 4] | SMILES | IC50 ([1]; IKKε_IC50, 10 point 1:4 dose response) | IC50 [2]
< 100 nM | < 100 nM | COc1nc(Nc2nccc(-c3ccc(OC4CCN(C(=O)[C@H](C)CO)CC4(F)F)c(C#N)c3)n2)ccc1N1CCN(C2COC2)CC1 (stereo partly drawn) [Example 257, 2-[3,3-Difluoro-1-((R)-3-hydroxy-2-methyl-propionyl)-piperidin-4-yloxy]-5-{2-[6-methoxy-5-(4-oxetan-3-yl-piperazin-1-yl)-pyridin-2-ylamino]-pyrimidin-4-yl}-benzonitrile] |  | 
< 100 nM | < 100 nM | COc1nc(Nc2nccc(-c3ccc(O[C@@H]4CCN(C(=O)[C@H](C)O)CC4(F)F)c(C#N)c3)n2)ccc1N1CCN(C2COC2)CC1 [Example 122, 2-[[(4R)-3,3-difluoro-1-[(2S)-2-hydroxypropanoyl]piperidin-4-yl]oxy]-5-[2-([6-methoxy-5-[4-(oxetan-3-yl)piperazin-1-yl]pyridin-2-yl]amino)pyrimidin-4-yl]benzonitrile] |  | 
< 100 nM | < 100 nM | C[C@H](O)C(=O)N1CC(COc2ccc(-c3ccnc(Nc4ccc(N5CCN(C6COC6)CC5)cc4)n3)cc2C#N)C1 [Example 277, 2-([1-[(2S)-2-hydroxypropanoyl]azetidin-3-yl]methoxy)-5-[2-([4-[4-(oxetan-3-yl)piperazin-1-yl]phenyl]amino)pyrimidin-4-yl]benzonitrile] |  | 
< 100 nM | < 100 nM | COc1nc(Nc2nccc(-c3ccc(OC4CCN(C(=O)c5n[nH]c(C)n5)CC4)c(C#N)c3)n2)ccc1N1CCN(C)CC1 [Example 94, 5-(2-[[6-methoxy-5-(4-methylpiperazin-1-yl)pyridin-2-yl]amino]pyrimidin-4-yl)-2-([1-[(5-methyl-1H-1,2,4-triazol-3-yl)carbonyl]piperidin-4-yl]oxy)benzonitrile] |  | 
< 100 nM | < 100 nM | COc1nc(Nc2nccc(-c3cc(C#N)c(OC4CCN(C(=O)[C@H](C)O)CC4(F)F)cc3C)n2)ccc1N1CCN(C2COC2)CC1 (stereo partly drawn) [Example 307, 2-([3,3-difluoro-1-[(2S)-2-hydroxypropanoyl]piperidin-4-yl]oxy)-5-[2-([6-methoxy-5-[4-(oxetan-3-yl)piperazin-1-yl]pyridin-2-yl]amino)pyrimidin-4-yl]-4-methylbenzonitrile] |  | 
 |  | COc1nc(Nc2nccc(-c3ccc(OC4CCOCC4)c(C#N)c3)n2)ccc1C(=O)N1CC2CC(C1)O2 [Example 7, 5-(2-[[6-methoxy-5-([6-oxa-3-azabicyclo[3.1.1]heptan-3-yl]carbonyl)pyridin-2-yl]amino]pyrimidin-4-yl)-2-(oxan-4-yloxy)benzonitrile] | < 100 nM | < 100 nM
< 100 nM | < 100 nM | COc1nc(Nc2nccc(-c3ccc(OC4CCOCC4)c(C#N)c3)n2)ccc1C(=O)N[C@@H]1[C@@H]2C[C@H]1CN(C)C2 [Example 20, 6-([4-[3-cyano-4-(oxan-4-yloxy)phenyl]pyrimidin-2-yl]amino)-2-methoxy-N-[(1R,5S,6S)-3-methyl-3-azabicyclo[3.1.1]heptan-6-yl]pyridine-3-carboxamide] |  | 
< 100 nM | < 100 nM | N#Cc1cc(-c2ccnc(Nc3ccc(C4CCN(C5COC5)CC4)cc3)n2)ccc1OC1CCOCC1 [Example 151, 5-{2-[4-(1-Oxetan-3-yl-piperidin-4-yl)-phenylamino]-pyrimidin-4-yl}-2-(tetrahydro-pyran-4-yloxy)-benzonitrile] |  | 
< 100 nM | < 100 nM | COc1nc(Nc2nccc(-c3ccc(N4CC5(CCN(C(=O)[C@H](C)O)CC5)C4)c(C#N)c3)n2)ccc1N1CCN(C2COC2)CC1 [Example 314, 2-[7-((S)-2-Hydroxy-propionyl)-2,7-diaza-spiro[3.5]non-2-yl]-5-{2-[6-methoxy-5-(4-oxetan-3-yl-piperazin-1-yl)-pyridin-2-ylamino]-pyrimidin-4-yl}-benzonitrile] |  | 
< 100 nM | < 100 nM | COc1nc(Nc2nccc(-c3ccc(OC4CCN(C(=O)CO)CC4)c(C#N)c3)n2)ccc1C(=O)N(C)C [Example 73, 6-[[4-(3-cyano-4-[[1-(2-hydroxyacetyl)piperidin-4-yl]oxy]phenyl)pyrimidin-2-yl]amino]-2-methoxy-N,N-dimethylpyridine-3-carboxamide] |  | 
1000 to 5000 nM | 1000 to 5000 nM | CN1CCN(c2ccc(Nc3nccc(-c4ccc(OC5CN(C)C5)c(C#N)c4)n3)nc2)CC1 [Example 81, 2-[(1-methylazetidin-3-yl)oxy]-5-(2-[[5-(4-methylpiperazin-1-yl)pyridin-2-yl]amino]pyrimidin-4-yl)benzonitrile] |  | 
< 100 nM | < 100 nM | COc1nc(Nc2nccc(-c3ccc(OC4CCN(C(=O)[C@@H](C)O)CC4(F)F)c(C#N)c3)n2)ccc1N1CCN(C)CC1C (stereo in doubt) [Example 110, 2-[3,3-Difluoro-1-((R)-2-hydroxy-propionyl)-piperidin-4-yloxy]-5-{2-[5-((S)-2,4-dimethyl-piperazin-1-yl)-6-methoxy-pyridin-2-ylamino]-pyrimidin-4-yl}-benzonitrile] |  | 
100 to 1000 nM | 100 to 1000 nM | COc1cc(Nc2nccc(-c3ccc(OC4CCN(C(=O)[C@H](C)O)CC4)c(C#N)c3)n2)ncc1N1CCN(C2COC2)CC1 [Example 318, 2-([1-[(2S)-2-hydroxypropanoyl]piperidin-4-yl]oxy)-5-[2-([4-methoxy-5-[4-(oxetan-3-yl)piperazin-1-yl]pyridin-2-yl]amino)pyrimidin-4-yl]benzonitrile] |  | 
100 to 1000 nM | 100 to 1000 nM | COc1cc(N2CCN(C3COC3)CC2)cnc1Nc1nccc(-c2ccc(OC3CCN(C(=O)[C@H](C)O)CC3(F)F)c(C#N)c2)n1 (stereo partly drawn) [Example 309, 2-([3,3-difluoro-1-[(2S)-2-hydroxypropanoyl]piperidin-4-yl]oxy)-5-[2-([3-methoxy-5-[4-(oxetan-3-yl)piperazin-1-yl]pyridin-2-yl]amino)pyrimidin-4-yl]benzonitrile] |  | 
1000 to 5000 nM | 1000 to 5000 nM | COc1cc(Nc2nccc(-c3cc(C#N)c(OC4CCOCC4)cn3)n2)cnc1C(=O)N(C)C [Example 52, 5-([4-[4-cyano-5-(oxan-4-yloxy)pyridin-2-yl]pyrimidin-2-yl]amino)-3-methoxy-N,N-dimethylpyridine-2-carboxamide] |  | 
< 100 nM | < 100 nM | C[C@@H](O)C(=O)N1CCC(Oc2ccc(-c3ccnc(Nc4ccncc4)n3)cc2C#N)C(F)(F)C1 (stereo partly drawn) [Example 208, 2-([3,3-difluoro-1-[(2R)-2-hydroxypropanoyl]piperidin-4-yl]oxy)-5-[2-[(pyridin-4-yl)amino]pyrimidin-4-yl]benzonitrile] |  | 
< 100 nM | < 100 nM | CCOc1cc(Nc2nccc(-c3ccc(OC4CCN(C(=O)[C@H](C)O)CC4(F)F)c(C#N)c3)n2)ccc1N1CCN(C2COC2)CC1 (stereo partly drawn) [Example 229, 2-([3,3-difluoro-1-[(2S)-2-hydroxypropanoyl]piperidin-4-yl]oxy)-5-[2-([3-ethoxy-4-[4-(oxetan-3-yl)piperazin-1-yl]phenyl]amino)pyrimidin-4-yl]benzonitrile] |  | 

SMILES | IC50 [1, 3] | IC50 [2, 4] | IC50 ([1]; IKKε_IC50, 10 point 1:4 dose response) | IC50 [2]
COc1nc(Nc2nccc(-c3ccc(OC4CCOCC4)c(C#N)n3)n2)ccc1C(=O)NC1CN2CCC1CC2 (stereo not drawn) [Example 29, N-[1-azabicyclo[2.2.2]octan-3-yl]-6-([4-[6-cyano-5-(oxan-4-yloxy)pyridin-2-yl]pyrimidin-2-yl]amino)-2-methoxypyridine-3-carboxamide] | < 100 nM | < 100 nM |  | 

Source: patent US20230019491A1, “PYRIMIDINE TBK/IKKe INHIBITOR COMPOUNDS AND USES THEREOF” (Merck Patent GmbH, priority 2017, published 2023)
